Measurements published in article PMC10459552, “Cardiomyocyte-Targeting Peptide to Deliver Amiodarone” (Pharmaceutics, 2023).
Counter-ions that a name gives are not always drawn.

Key:
mice = conditions: biodistribution studies; cited from earlier work
Excerpt: The ability of cationic or hydrophobic cell-penetrating peptides to transduce a wide variety of tissue types in vivo limits their clinical utility because of their lack of cell specificity, leading to a higher chance of off-target adverse side effects. Phage display using libraries of various lengths and various bacteriophage strains have been successfully utilized to identify tissue-specific penetrating peptides. In our prior work, we employed a combinatorial in vitro and in vivo M13 phage display methodology to identify a 12-amino-acid, synthetic, mildly bas ...

guinea pig hearts = assay: Optical mapping of voltage and Ca2+ in Langendorff-perfused hearts after daily intraperitoneal injection; conditions: same dosing; for AP and CaT durations compared to control hearts: recovery to 90% of baseline, Figure 4c, e
Experimental: At the end of the study, the GPs were euthanized, the hearts excised and perfused on a Langendorff apparatus with Tyrode’s solution containing (in mM): NaCl (130), KCl (4), MgSO4 (1.2), NaHCO3 (25), Glucose (5), CaCl2 (1.25), and Mannitol (45), and gassed with 95% O2 and 5% CO2, with a pH of 7.0, at 37 °C. The hearts were placed in a custom-designed chamber to subdue the motion artifacts, along with a 15 min blebbistatin (5 µM) in perfusate to minimize the contractions. Bolus injections of voltage (RH237, 25 µL of 2 mg/mL dimethyl sulfoxide (DMSO)) and Ca^2+-indicator dye (Rhod-2/AM, 200 µL of 2 mg/mL DMSO) were injected in the air trap above the aortic cannula. Fluorescence from the epicardium was collected with a camera lens, split with a 570 nm dichroic mirror and focused on two CMOS cameras (Sci-Media UltimaOne, Costa Mesa, CA, USA) capturing the fluorescence emission at 570–595 nm for the cytosolic Ca^2+ and 610–750 nm wavelengths for the voltage, as described in detail previously [33]. After resting sinus rhythm image acquisition, the hearts were paced at 250 ms with programmed stimulation to measure and compare the conduction velocity and transient duration (90%) of various treatment groups.
Adult male GPs (250–350 g) were injected intraperitoneally with amiodarone (80 mg/kg; n = 4) daily for 7 days, CTP–amio (26.3 mg/kg; n = 4) for 5 days, or CTP alone (17.8 mg/kg; n = 4) for 5 days and compared to vehicle-only injected GPs (n = 10). At the end of the injection period, the GPs were euthanized, and their hearts were excised and perfused in a Langendorf apparatus. The hearts were labeled with a voltage-sensitive dye (RH 237) and a Ca^2+ indicator (Rhod-2/AM) with a bolus injection in the perfusate in the air trap above the aortic cannula. Fluorescence images of the heart were focused on 2 CMOS cameras, one to detect voltage and the other intracellular free Ca^2+. The heart rate, action potentials (APs), and intracellular free-Ca^2+ transients (CaT) were measured from 10,000 pixels of the voltage and Ca^2+ CMOS cameras (Supplemental Figure S1). Durations of the APs and CaTs were calculated from the first derivative of the rise of the signals to their recovery to 90% of the baseline.

[1] = tested on: guinea pig hearts (gene expression); assay: RNA sequencing of treated hearts versus control hearts; type: in vivo; conditions: CTP-treated hearts versus controls
Experimental: Libraries were generated with the Illumina Stranded mRNA Library Prep kit (Illumina: 20040534, San Diego, CA, USA), according to the manufacturer’s instructions. RNA was assessed for quality using a Total RNA 15 nt kit (Agilent: DNF-471-33) on an Advanced Analytical 5300 Fragment Analyzer. The RNA concentration was quantified with a Qubit BR RNA assay kit (Invitrogen: Q10211) on a Qubit 4 (Invitrogen: Q33238). Briefly, 50 ng of input RNA was used for each sample. Following adapter ligation, 15 cycles of indexing PCR were completed, using IDT for Illumina RNA UD Indexes (Illumina: 20040553). Library assessment and quantification were performed using Qubit 1x HS DNA (Invitrogen: Q33231) on a Qubit 4 fluorometer and a HS NGS Fragment kit (Agilent: DNF-474-1000). […] The pooled library was loaded at 750 pM, and sequencing was carried out with read lengths of 2 × 101 bp, with an average of ~40 million reads per sample. […]
The raw RNA sequencing (RNA-Seq) paired-end reads for the guinea pig (GP) samples were processed through the Mayo RNA-Seq bioinformatics pipeline, RapMap version 1.0.0. Briefly, the raw reads were trimmed with a base quality cutoff of Phred score Q30 using Trimmomatic. […]
Using the gene-level counts from RapMap, genes differentially expressed between the control and treated groups were assessed using the bioinformatics package edgeR 2.6.2 [37]. […]

Molecule	crossing of the blood–brain barrier (mice)	route of excretion (mice)	AP and CaT durations compared to control hearts (guinea pig hearts)	expression of α-adrenergic receptors [1]	expression of β-adrenergic receptors [1]	heart rate during sinus rhythm compared to control hearts (guinea pig hearts; Figure 4a)	conduction velocity (CV) of the APs and CaT compared to control hearts (guinea pig hearts; Figure 4b, d)	calcium transients compared to the controls (guinea pig hearts; Rhod-2/AM fluorescence)
NH2-APWHLSSQYSRT-COOH (H-APWHLSSQYSRT-OH) [CTP, 12-amino-acid, synthetic, mildly basic, non-naturally occurring cell-penetrating peptide identified by phage display]	does not cross	predominantly by a renal followed by a hepatobiliary mechanism	decreased	upregulation	downregulation	–	–	–
CCCCc1oc2ccccc2c1C(=O)c1cc(I)c(OCCN(CC)CC)c(I)c1 [amiodarone, Amiodarone hydrochloride]	–	–	increased	–	–	significantly decreased	decreased	significantly decreased
